# Values quoted from earlier work in paper PMC7134594 (Chemistry & Biology, 2004).
# Tested on: SARS-CoV
Compound,inhibiting replication of SARS-CoV in vitro,other results
CC(C)(C)NC(=O)[C@@H]1C[C@@H]2CCCC[C@@H]2CN1C[C@@H](O)[C@H](Cc1ccccc1)NC(=O)[C@H](CC(N)=O)NC(=O)c1ccc2ccccc2n1 [saquinavir],ineffective,
Cc1cccc(C)c1OCC(=O)N[C@@H](Cc1ccccc1)[C@@H](O)C[C@H](Cc1ccccc1)NC(=O)[C@H](C(C)C)N1CCCNC1=O [lopinavir],ineffective,
"NC(=O)c1ncn([C@@H]2O[C@H](CO)[C@@H](O)[C@H]2O)n1 [Ribavirin, ribavirin]",,"anti-SARS-CoV activity in vitro: anti-SARS-CoV activity in vitro, but at concentrations that are cytotoxic"
CC(C)c1nc(CN(C)C(=O)N[C@H](C(=O)N[C@@H](Cc2ccccc2)C[C@H](O)[C@H](Cc2ccccc2)NC(=O)OCc2cncs2)C(C)C)cs1 [ritonavir],ineffective,
CC(C)(C)NC(=O)[C@@H]1CN(Cc2cccnc2)CCN1C[C@@H](O)C[C@@H](Cc1ccccc1)C(=O)N[C@H]1c2ccccc2C[C@H]1O [indinavir],ineffective,
Cc1c(O)cccc1C(=O)N[C@@H](CSc1ccccc1)[C@H](O)CN1C[C@H]2CCCC[C@H]2C[C@H]1C(=O)NC(C)(C)C [nelfinavir],,"EC50 (read-out: EC50, inhibition of SARS-CoV replication): 0.048 µM"
CSC[C@H](NC(=O)COc1cccc2cnccc12)C(=O)N[C@@H](Cc1ccccc1)[C@H](O)C(=O)N1CSC[C@H]1C(=O)NC(C)(C)C [KNI-272],ineffective,
